Measured values as given in patent publication US10227321B2, “Soothing pro-pheromonal composition for mammals” (Melchior Material And Life Science France, priority 2014, dated 2019).
Values belong to the compound of their own block, whether it stands above or below them.

Experiments:
[1] = Estimated amounts released into the atmosphere from the thermal diffuser; format: physicochemical; details: for Daily amount released into the atmosphere: at 100° C.
Description: Based on the preceding measurements, we can estimate that the amounts released over the 35-day period by molecules going into each composition are the following (in grams):
By considering that at 100° C., all of product 122:1 decomposes as was shown in Example 3, we can estimate the daily amounts of the various products released into the atmosphere according to the various formulae.

dogs = details: dog, in vivo; cited from earlier work
[2] = In vitro study of 2M2B release: climatic chamber, gas chromatography; format: physicochemical; details: solution of Example 2b
Description: Conditions A: 1) Solketal/KOH/RI/DMSO/50° C. 2) APTS/MeOH/H2O. Conditions B: 1) Solketal/KOH/RBr/Toluene/DS/2) APTS/MeOH/H2O. Conditions C: 1) CH2Cl2/Et3N/MsCl 2) Solketal/KOH/ROMs/Toluene/DS/Δ3) APTS/MeOH/H2O. GC Method Used: Equipment: GC, Hewlett Packard 5890 Series II Detector FID Column: HP5 30 m, 0.53 mm, 0.88 μm Pressure: 11 psi Injection volume: 1 μL Sample preparation: 4 mg/mL in AcOEt Injector temperature: 270° C. Detector temperature: 280° C. Oven:
The solution prepared in Example 2b is used in a climatic chamber at 100° C. and 30° C. (conditions corresponding either to the temperature of a thermal diffuser or to room temperature). Samples are taken at regular intervals and the disappearance of compound 122:1 and the appearance of C22:1 AKG is measured by gas chromatography. The results are presented in the following table (the percentages are expressed only taking into consideration integration relative to compound 118 and of C18:0 AKG): […]

SMILES: CC=C(C)C=O [2-Methyl-2-butenal, 2-methyl-2-butenal]
Daily amount released into the atmosphere ([1]; 2% Formula (2e)): 0.036 mg
Daily amount released into the atmosphere ([1]; 5% Formula (2d)): 36 mg
Daily amount released into the atmosphere ([1]; 10% Formula (2c)): 0.32 mg
effect on dogs (dogs): has an effect on the heartbeat and the behavior of dogs

SMILES: C/C=C(\C)C1OCC(COCCCCCCCCCCCC/C=C\CCCCCCCC)O1 (centres unmarked) [122:1]
amount released over the 35-day period ([1]; from Formula 2c): 0.05 grams
amount released over the 35-day period ([1]; from Formula 2e): 0.0063 grams
amount released over the 35-day period ([1]; from Formula 2d): 0.0063 grams

SMILES: CCCCCCCCCCCCCCCCCCOCC(O)CO (centres unmarked) [C18:0 AKG]
% (GC integration relative to compound 118 and C18:0 AKG) ([2]; T = 30° C., 1 d): 0%
% (GC integration relative to compound 118 and C18:0 AKG) ([2]; T = 30° C., 2 d): 0%
% (GC integration relative to compound 118 and C18:0 AKG) ([2]; T = 30° C., 7 d): 0%
% (GC integration relative to compound 118 and C18:0 AKG) ([2]; T = 30° C., 14 d): 0.5%
% (GC integration relative to compound 118 and C18:0 AKG) ([2]; T = 30° C., 21 d): 1%
% (GC integration relative to compound 118 and C18:0 AKG) ([2]; T = 30° C., 28 d): 1%
% (GC integration relative to compound 118 and C18:0 AKG) ([2]; T = 30° C., time 0): 0%
% (GC integration relative to compound 118 and C18:0 AKG) ([2]; T = 100° C., 3 h): 48%
% (GC integration relative to compound 118 and C18:0 AKG) ([2]; T = 100° C., 6 h): 75%
% (GC integration relative to compound 118 and C18:0 AKG) ([2]; T = 100° C., 1 d): 98%
% (GC integration relative to compound 118 and C18:0 AKG) ([2]; T = 100° C., 2 d): 100%
% (GC integration relative to compound 118 and C18:0 AKG) ([2]; T = 100° C., 7 d): 100%
% (GC integration relative to compound 118 and C18:0 AKG) ([2]; T = 100° C., 14 d): 100%
% (GC integration relative to compound 118 and C18:0 AKG) ([2]; T = 100° C., 21 d): 100%
% (GC integration relative to compound 118 and C18:0 AKG) ([2]; T = 100° C., 28 d): 100%
% (GC integration relative to compound 118 and C18:0 AKG) ([2]; climatic chamber, T = 100° C., time 0): 0%

Next, values leading:

Daily amount released into the atmosphere ([1]; 2% Formula (2e)): 0.14 mg
Daily amount released into the atmosphere ([1]; 5% Formula (2d)): 0.14 mg
Daily amount released into the atmosphere ([1]; 10% Formula (2c)): 1.2 mg
SMILES: C/C=C(\C)C1OCC(COCCCCCCCCCCCC/C=C\CCCCCCCC)O1 (centres unmarked) [C22:1 AKG]

Daily amount released into the atmosphere ([1]; 2% Formula (2e)): 5.8 mg
Daily amount released into the atmosphere ([1]; 5% Formula (2d)): 5.1 mg
Daily amount released into the atmosphere ([1]; 10% Formula (2c)): 5.5 mg
amount released over the 35-day period ([1]; from Formula 2c): 0.195 grams
amount released over the 35-day period ([1]; from Formula 2e): 0.2 grams
amount released over the 35-day period ([1]; from Formula 2d): 0.188 grams
SMILES: CCCCC/C=C\C/C=C\CCCCCCCC(=O)O [Linoleic acid]
